Laboratory results: publication PMC7115582 (European Journal of Medicinal Chemistry, 2018)

System: lentiviral pseudoparticles carrying H1-HA and N1-NA (from A/PR/8/34)
Assay type: cell-based, influenza A virus
Conditions: control compounds; MDCK cells; Fig. 3

Row | SMILES | inhibition of pseudoparticle entry, in words
1 | CC(C)c1ccccc1NCCN1CCCCC1.Cl [Compound 80] | Strong and dose-dependent inhibition
2 | CCc1ccccc1OCCN1CCCCCC1 [Compound 81] | Strong and dose-dependent inhibition
3 | COC(=O)[C@@H]1NC(=O)[C@@H]2NC(=O)[C@H](NC(=O)[C@@H]3NC(=O)[C@H]4NC(=O)[C@H](NC(=O)[C@H](Nc5c(NCc6ccc(-c7ccccc7)cc6)c(=O)c5=O)c5ccc(O)c(c5)Oc5cc4cc(O)c5C)[C@H](O)c4ccc(cc4)Oc4cc3cc(c4O)Oc3ccc(cc3)[C@H]2O)c2ccc(O)c(c2)-c2c(O)cc(O)cc21 [SA-19] | Strong and dose-dependent inhibition
4 | CCN(CC)CCCC(C)Nc1ccnc2cc(Cl)ccc12 (stereo not shown) [chloroquine] | Strong and dose-dependent inhibition
